Data from patent US20220324835A1 (Nurix Therapeutics, Inc., priority 2018, published 2022).

The compounds below were run against Cbl-b (Homo sapiens, UniProt Q13191) (assay: Cbl-b activity assay (Cbl-b inhibition assay), TR-FRET of Cbl-b interaction with UbcH5B-Ub). Conditions: * assay buffer containing 50 mM NaCl instead of 100 mM NaCl and 30 nM Src kinase instead of 60 nM; read-out: Cbl-b activity IC50 (μM)*.
Type: biochemical
Description: The ability of candidate compounds to inhibit Cbl-b activity was measured by monitoring the interaction of Cbl-b with UbcH5B-Ub in the presence of the candidate compound.
Fluorescently labeled UbcH5B-Ub was prepared by conjugating ubiquitin (Ub), labeled at its N-terminus with Bodipy-Fluorescein, to UbcH5B, an E2 enzyme, harboring a cysteine to lysine mutation at position 85. […] After incubation in the presence of the candidate compound, the plate was incubated for an additional 1.5 hours in the presence of 60 nM Src kinase with 1 mM ATP and 5 mM MgCl2 (final concentrations). […] The plate was incubated for 1 hour.
Column marked with an asterisk (*) were tested as described above with assay buffer containing 50 mM NaCl instead of 100 mM NaCl and 30 nM Src kinase instead of 60 nM Src kinase. The resulting data for the Cbl-b binding assay was solvent corrected and double referenced prior to analysis. All data were globally fit to a steady-state affinity and kinetic binding model where applicable). Fit parameters were derived from a 1:1 binding model using the Biacore T200 Evaluation Software V2.0 (GE Healthcare) (Table 2).

Cbl-b, sequence (Q13191 36-427): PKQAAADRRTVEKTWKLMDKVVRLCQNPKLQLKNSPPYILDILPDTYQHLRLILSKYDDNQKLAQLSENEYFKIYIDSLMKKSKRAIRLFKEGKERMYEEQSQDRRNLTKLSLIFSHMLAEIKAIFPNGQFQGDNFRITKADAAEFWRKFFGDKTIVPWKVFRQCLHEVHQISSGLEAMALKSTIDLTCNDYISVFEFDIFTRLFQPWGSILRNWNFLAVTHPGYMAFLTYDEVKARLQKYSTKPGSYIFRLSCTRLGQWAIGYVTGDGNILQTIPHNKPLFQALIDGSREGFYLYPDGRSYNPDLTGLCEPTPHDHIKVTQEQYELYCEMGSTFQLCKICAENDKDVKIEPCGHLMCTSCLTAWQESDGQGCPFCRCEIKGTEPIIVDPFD

First: Cc1ccc2cc(C(=O)Nc3cccc(C(C)Sc4nncn4C)c3)cnc2c1 (stereo not drawn) [Compound 15, 7-Methyl-N-(3-(1-(4-methyl-4H-1,2,4-triazol-3-ylthio)ethyl)phenyl)quinoline-3-carboxamide]
Second: CC(Sc1nncn1C)c1cccc(NC(=O)c2cc3ccc(Cl)cc3cn2)c1 (stereo not drawn) [Compound 25, 7-Chloro-N-(3-(1-((4-methyl-4H-1,2,4-triazol-3-yl)thio)ethyl)phenyl)isoquinoline-3-carboxamide]
The IC50 of the first is higher: > 10 µM for the first, 1 to 3 µM for the second.

First: CC(Sc1nncn1C)c1cccc(NC(=O)c2ccc3ccc(Cl)cc3n2)c1 (stereo not drawn) [Compound 16, 7-Chloro-N-(3-(1-((4-methyl-4H-1,2,4-triazol-3-yl)thio)ethyl)phenyl)quinoline-2-carboxamide]
Second: Cc1ccc2ccc(C(=O)Nc3cccc(C(C)Sc4nncn4C)c3)nc2n1 (stereo not drawn) [Compound 21, 7-Methyl-N-(3-(1-((4-methyl-4H-1,2,4-triazol-3-yl)thio)ethyl)phenyl)-1,8-naphthyridine-2-carboxamide]
The IC50 of the first is lower: 3 to 10 µM for the first, > 10 µM for the second. The first is the more potent here.

`CC(Sc1nncn1C)c1cccc(NC(=O)c2ccc3cccnc3n2)c1` (stereo not drawn) [Compound 18, N-(3-(1-((4-Methyl-4H-1,2,4-triazol-3-yl)thio)ethyl)phenyl)-1,8-naphthyridine-2-carboxamide] and `CC(Sc1nncn1C)c1cccc(NC(=O)c2ccc3ncccc3n2)c1` (stereo not drawn) [Compound 20, N-(3-(1-((4-Methyl-4H-1,2,4-triazol-3-yl)thio)ethyl)phenyl)-1,5-naphthyridine-2-carboxamide] fall in the same range of IC50: 3 to 10 µM for the first, 3 to 10 µM for the second.

Compared with `CC(Sc1nncn1C)c1cccc(NC(=O)c2cc3ccncc3cn2)c1` (stereo not drawn) [Compound 19, N-(3-(1-((4-Methyl-4H-1,2,4-triazol-3-yl)thio)ethyl)phenyl)-2,7-naphthyridine-3-carboxamide], `Cc1cnc(C(=O)Nc2cccc([C@H](C)Sc3nncn3C)c2)cc1C` [Compound 36, (S)-4,5-Dimethyl-N-(3-(1-((4-methyl-4H-1,2,4-triazol-3-yl)thio)ethyl)phenyl)picolinamide] is lower in IC50: 3 to 10 µM for the first, 1 to 3 µM for the second. The second is the more potent here.

First: CC(Sc1nncn1C)c1cccc(NC(=O)c2cc3ccccc3c(=O)[nH]2)c1 (stereo not drawn) [Compound 22, N-(3-(1-((4-Methyl-4H-1,2,4-triazol-3-yl)thio)ethyl)phenyl)-1-oxo-1,2-dihydroisoquinoline-3-carboxamide]
Second: Cc1ccc(C(=O)Nc2cccc([C@H](C)Sc3nncn3C)c2)cc1C [Compound 27, (S)-3,4-Dimethyl-N-(3-(1-((4-methyl-4H-1,2,4-triazol-3-yl)thio)ethyl)phenyl)benzamide]
The IC50 of the first is higher: > 10 µM for the first, 3 to 10 µM for the second. The second is the more potent here.

`CC(Sc1nncn1C)c1cccc(NC(=O)c2cc3c(cn2)CCCC3)c1` (stereo not drawn) [Compound 24, N-(3-(1-((4-Methyl-4H-1,2,4-triazol-3-yl)thio)ethyl)phenyl)-5,6,7,8-tetrahydroisoquinoline-3-carboxamide] and `CC(C)c1ccnc(C(=O)Nc2cccc([C@H](C)Sc3nncn3C)c2)c1` [Compound 37, (S)-4-Isopropyl-N-(3-(1-((4-methyl-4H-1,2,4-triazol-3-yl)thio)ethyl)phenyl)picolinamide] fall in the same range of IC50: 3 to 10 µM for the first, 3 to 10 µM for the second.

Compared with `Cc1cc(C(=O)Nc2cccc([C@H](C)Sc3nncn3C)c2)ccc1Cl` [Compound 28, (S)-4-Chloro-3-methyl-N-(3-(1-((4-methyl-4H-1,2,4-triazol-3-yl)thio)ethyl)phenyl)benzamide], `CC(Sc1nncn1C)c1cc(CO)cc(NC(=O)c2ccc3ccccc3n2)c1` (stereo not drawn) [Compound 132, N-(3-(hydroxymethyl)-5-(1-(4-methyl-4H-1,2,4-triazol-3-ylthio)ethyl)phenyl)quinoline-2-carboxamide] is higher in IC50: 1 to 3 µM for the first, > 10 µM for the second.

`CC(Sc1nccn1C)c1cccc(NC(=O)c2cc3ccccc3cn2)c1` (stereo not drawn) [Compound 100, N-[3-[1-(1-methylimidazol-2-yl)sulfanylethyl]phenyl]isoquinoline-3-carboxamide] and `CC(Sc1nccn1C)c1ccc(F)c(NC(=O)c2cccc(C(F)(F)F)n2)c1` (stereo not drawn) [Compound 101, N-[2-fluoro-5-[1-(1-methylimidazol-2-yl)sulfanylethyl]phenyl]-6-(trifluoro-methyl)pyridine-2-carboxamide] fall in the same range of IC50: 3 to 10 µM for the first, 3 to 10 µM for the second.

Compared with `C[C@@H](Sc1nncn1C)c1ccnc(NC(=O)c2cccc(C(F)(F)F)n2)c1` [Compound 102a, (R)-N-(4-(1-((4-methyl-4H-1,2,4-triazol-3-yl)thio)ethyl)pyridin-2-yl)-6-(trifluoromethyl)picolinamide], `CC(Sc1nncn1C)c1cccc(N2Cc3c(cccc3C(F)(F)F)C2=O)c1` (stereo not drawn) [Compound 166, 2-(3-(1-((4-methyl-4H-1,2,4-triazol-3-yl)thio)ethyl)phenyl)-4-(trifluoromethyl)isoindolin-1-one] is lower in IC50: 3 to 10 µM for the first, 0.301 to 1 µM for the second.

`CC(Sc1nncn1C)c1cccc(N2Cc3ccccc3C2=O)c1` (stereo not drawn) [Compound 162, 2-[3-[1-[(4-methyl-1,2,4-triazol-3-yl)sulfanyl]ethyl]phenyl]isoindolin-1-one] and `CC(Sc1nncn1C)c1ccnc(N2Cc3ccccc3C2=O)c1` (stereo not drawn) [Compound 171, 2-(4-(1-((4-methyl-4H-1,2,4-triazol-3-yl)thio)ethyl)pyridin-2-yl)isoindolin-1-one] fall in the same range of IC50: 3 to 10 µM for the first, 3 to 10 µM for the second.

Same assay, conditions: assay buffer with 100 mM NaCl, 60 nM Src kinase; read-out: Cbl-b activity IC50

Compared with `Cn1cnnc1C(F)[C@@](C)(F)c1cccc(N2Cc3c(cccc3C(F)(F)F)C2=O)c1` (stereo in doubt) [Compound 478b, 2-(3-((1R,2S)-1,2-difluoro-1-(4-methyl-4H-1,2,4-triazol-3-yl)propan-2-yl)phenyl)-4-(trifluoromethyl)isoindolin-1-one], `C[C@@H](Sc1nncn1C)c1ccc(F)c(N2Cc3c(cccc3C(F)(F)F)C2=O)c1` [Compound 170, 2-[2-Fluoro-5-[(1R)-1-[(4-methyl-1,2,4-triazol-3-yl)sulfanyl]ethyl]phenyl]-4-(trifluoromethyl)isoindolin-1-one] is higher in IC50: 1 to 3 µM for the first, > 10 µM for the second.

First: C[C@@H](Cc1n[nH]cc1CO)c1cccc(N2Cc3c(cccc3C(F)(F)F)C2=O)c1 [Compound 271a, (S)-2-(3-(1-(4-(hydroxymethyl)-1H-pyrazol-3-yl)propan-2-yl)phenyl)-4-(trifluoromethyl)isoindolin-1-one]
Second: Cc1[nH]cnc1C[C@@H](C)c1cccc(N2Cc3c(cccc3C(F)(F)F)C2=O)c1 [Compound 272a, 2-[3-[(2R)-1-(5-methyl-1H-imidazol-4-yl)propan-2-yl]phenyl]-4-(trifluoromethyl)isoindolin-1-one]
The IC50 of the first is higher: > 10 µM for the first, 0.1 to 0.3 µM for the second.

`Cc1cnnn1C[C@H](C)c1cccc(NC(=O)c2cccc(C(F)(F)F)n2)c1` [Compound 312b, (R)-N-(3-(1-(5-methyl-1H-1,2,3-triazol-1-yl)propan-2-yl)phenyl)-6-(trifluoromethyl)picolinamide] and `Cc1conc1C[C@H](C)c1cccc(N2Cc3c(cccc3C(F)(F)F)C2=O)c1` [Compound 367b, (S)-2-(3-(1-(4-methylisoxazol-3-yl)propan-2-yl)phenyl)-4-(trifluoromethyl)isoindolin-1-one] fall in the same range of IC50: 1 to 3 µM for the first, 1 to 3 µM for the second.

`C[C@H](Cc1nncn1C)c1cc(NC2(C)COC2)nc(N2Cc3c(cccc3C(F)(F)F)C2=O)c1` [Compound 349, 2-{4-[(2R)-1-(4-methyl-4H-1,2,4-triazol-3-yl)propan-2-yl]-6-[(3-methyloxetan-3-yl)amino]pyridin-2-yl}-4-(trifluoromethyl)-2,3-dihydro-1H-isoindol-1-one] showed an IC50 of 0.301 to 1 µM.
